Structures can show the parent of a compound that is named as a salt. Where two headings read alike, the source gives them in different places. Where a SMILES comes first, the peptide text is derived from it. The star is where a group is joined. Exatecan = CC[C@@]1(O)C(=O)OCc2c1cc1n(c2=O)Cc2c-1nc1cc(F)c(C)c3c1c2[C@@H](N*)CC3; Acetyl(cyclooct-2-yn-1-ylO) = O=C(COC1C#CCCCCC1)*
Tests used:
[1] = test system: SK-BR-3 cells; experiment: In vitro cytotoxicity assay in SK-BR-3 cells (CellTiter-Glo 2.0); format: cell-based, human; conditions: for EC50: Homo sapiens
Experimental: To test the ability of anti-Her2 drug conjugates (ADCs) of the present disclosure (see Table 5) to kill human cell lines, an in vitro cytotoxicity assay was performed. In vitro cytotoxicity of the ADCs, isotype control ADCs, and reference free payloads were evaluated using the CellTiter-Glo 2.0 Assay Kit (Promega, Cat #G9243), in which the quantity of ATP present is used to determine the number of viable cells in culture.
The last well in each dilution series (untreated wells) served as blank controls containing only the media (ADCs) or media plus 0.2% DMSO (payloads) and was plotted as a continuation of the 3-fold serial dilution. Six days later, 100 μL of CellTiter Glo 2.0 was added to each well, plates were mixed for 2 minutes on an orbital shaker, and plates were incubated at room temperature for 10 minutes. Relative light units (RLUs) were measured on an Envision luminometer (PerkinElmer), and cell viability was expressed as a percentage of the untreated (100% viable) cells. IC50 values were determined using a four-parameter logistic equation over a 10-point dose response curve (GraphPad Prism). The maximum % kill was also determined for each test article as follows: 100−minimum percent viability.

[2] = test system: HCT-15; experiment: HCT-15 data of payloads and linker-payloads (EC50, with or without verapamil); format: cell-based
[3] = Homo sapiens, linker-payload, HCT-15 cells, read-out: HCT-15 EC50
[4] = payload, HCT-15 cells plus verapamil, read-out: HCT-15 + verapamil EC50
[5] = Homo sapiens, payload, HCT-15 cells, no verapamil, read-out: HCT-15 EC50

In the case of `CC[C@@]1(O)C(=O)OCc2c1cc1n(c2=O)Cc2c-1nc1cc(F)c(C)c3c1c2[C@@H](N)CC3` [Exatecan], the EC50 ([1]; 144 h, Table 8, SK-BR-3, six days, concentrations corrected for DAR (effective payload concentration), read-out: SKBR3 EC50) is reported as 0.516 nM, the EC50 ([1]; SK-BR-3 cells, read-out: EC50 value) is reported as 0.516 nM and the maximum % kill ([1]; SK-BR-3 cells, 100 − minimum percent viability) is reported as about 95%.
`CC[C@@]1(O)C(=O)OCc2c1cc1n(c2=O)Cc2c-1nc1cc(F)c(C)c3c1c2[C@@H](NC(=O)OCc1ccc(O[C@@H]2O[C@H](C(=O)O)[C@@H](O)[C@H](O)[C@H]2O)c(C(=O)NCCNC(=O)COC2C#CCCCCC2)c1)CC3` (stereo partly drawn) [LP3, (2S,3S,4S,5R,6S)-6-[2-({2-[2-(Cyclooct-2-yn-1-yloxy)acetamido]ethyl}carbamoyl)-4-[({[(10S,23S)-10-ethyl-18-fluoro-10-hydroxy-19-methyl-5,9-dioxo-8-oxa-4,15-diazahexacyclo[14.7.1.0^2,^14.0^4,^13.0^6,^11.0^20,^24]tetracosa-1,6(11),12,14,16,18,20(24)-heptaen-23-yl]carbamoyl}oxy)methyl]phenoxy]-3,4,5-trihydroxyoxane-2-carboxylic acid] was tested, and the EC50 [2, 3] was 457 nM.
`CC[C@@]1(O)C(=O)OCc2c1cc1n(c2=O)Cc2c-1nc1cc(F)c(C)c3c1c2[C@@H](NC(=O)CNC(=O)OCc1ccc(NC(=O)[C@H](CCCNC(N)=O)NC(=O)[C@@H](NC(=O)CCOCCOCCOCCOCCNC(=O)COC2C#CCCCCC2)C(C)C)cc1)CC3` (stereo partly drawn) [LP5, {4-[(2S)-5-(Carbamoylamino)-2-[(2S)-2-{1-[2-(cyclooct-2-yn-1-yloxy)acetamido]-3,6,9,12-tetraoxapentadecan-15-amido}-3-methylbutanamido]pentanamido]phenyl}methyl N-({[(10S,23S)-10-ethyl-18-fluoro-10-hydroxy-19-methyl-5,9-dioxo-8-oxa-4,15-diazahexacyclo[14.7.1.0^2,^14.0^4,^13.0^6,^11.0^20,^24]tetracosa-1,6(11),12,14,16,18,20(24)-heptaen-23-yl]carbamoyl}methyl)carbamate] gave an EC50 [2, 3] of over 1000 nM.
With `CC[C@@]1(O)C(=O)OCc2c1cc1n(c2=O)Cc2c-1nc1ccccc1c2CCNC(C)C` [P8, Belotecan HCl salt, reference compound] the EC50 [2, 4] was 3.09 nM and the EC50 ([2]; payload, HCT-15 cells, no verapamil, read-out: HCT-15 EC50) was 20 nM.
In the case of `C#CCNCc1c2c(nc3ccc(OC)cc13)-c1cc3c(c(=O)n1C2)COC(=O)[C@]3(O)CC` [P24, (S)-4-ethyl-4-hydroxy-9-methoxy-11-((prop-2-yn-1-ylamino)methyl)-1,12-dihydro-14H-pyrano[3′,4′:6,7]indolizino[1,2-b]quinoline-3,14(4H)-dione], the EC50 [2, 5] is reported as 13.5 nM.
`CC[C@@]1(O)C(=O)OCc2c1cc1n(c2=O)Cc2c-1nc1cc(F)c(C)c3c1c2[C@@H](NC(=O)COCNC(=O)OCc1ccc(NC(=O)[C@H](C)NC(=O)[C@@H](NC(=O)CCOCCOCCOCCOCCNC(=O)COC2C#CCCCCC2)C(C)C)cc1)CC3` (stereo partly drawn) [LP15, {4-[(2S)-2-[(2S)-2-{1-[2-(cyclooct-2-yn-1-yloxy)acetamido]-3,6,9,12-tetraoxapentadecan-15-amido}-3-methylbutanamido]propanamido]phenyl}methyl N-[({[(10S,23S)-10-ethyl-18-fluoro-10-hydroxy-19-methyl-5,9-dioxo-8-oxa-4,15-diazahexacyclo[14.7.1.0^2,^14.0^4,^13.0^6,^11.0^20,^24]tetracosa-1,6(11),12,14,16,18,20(24)-heptaen-23-yl]carbamoyl}methoxy)methyl]carbamate] gave an EC50 [2, 3] of 96.9 nM.
`CC[C@@]1(O)C(=O)OCc2c1cc1n(c2=O)Cc2c-1nc1ccccc1c2CCN(C(C)C)S(C)(=O)=O` [P9, N-{2-[(19S)-19-ethyl-19-hydroxy-14,18-dioxo-17-oxa-3,13-diazapentacyclo[11.8.0.0^2,^11.0^4,^9.0^15,^20]henicosa-1(21),2,4,6,8,10,15(20)-heptaen-10-yl]ethyl}-N-(propan-2-yl)methanesulfonamide] gave an EC50 [2, 5] of 8.89 nM and an EC50 [2, 4] of 3.03 nM.
`CC[C@@]1(O)C(=O)OCc2c1cc1n(c2=O)Cc2c-1nc1cc(F)c(C)c3c1c2[C@@H](NC(=O)CNC(=O)CNC(=O)CNC(=O)CNC(=O)COC1C#CCCCCC1)CC3` (stereo partly drawn) [LP8, 2-(2-{2-[2-(Cyclooct-2-yn-1-yloxy)acetamido]acetamido}acetamido)-N-({[(10S,23S)-10-ethyl-18-fluoro-10-hydroxy-19-methyl-5,9-dioxo-8-oxa-4,15-diazahexacyclo[14.7.1.0^2,^14.0^4,^13.0^6,^11.0^20,^24]tetracosa-1,6(11),12,14,16,18,20(24)-heptaen-23-yl]carbamoyl}methyl)acetamide] ({Acetyl(cyclooct-2-yn-1-ylO)}-GGGG-Exatecan) gave an EC50 [2, 3] of 837 nM.
